Reference: US20150086530A1, “DOSING REGIMENS FOR THE TREATMENT OF POMPE DISEASE” (Amicus Therapeutics, Inc., priority 2012, published 2015)
Read-outs that look alike come from different tables or passages of the source.

How the values were obtained:
glycogen (GAA substrate) = assay: Tissue glycogen levels in GAA knock-out mice after repeat rhGAA with chaperone; assay type: in vivo, mouse; settings: 21 days after last injection
Experimental: Twelve week old GAA KO mice were administered recombinant human GAA (Myozyme) 20 mg/kg i.v. every other week for 8 weeks. […]
Repeat rhGAA administration studies were conducted in GAA knock-out mice to assess effects on tissue glycogen levels.
Twelve week old GAA KO mice were administered 20 mg/kg i.v. recombinant human GAA (Myozyme) every other week for 8 weeks. […] Tissues were collected 21 days after the last dose of rhGAA and the level of glycogen (GAA substrate) was measured.

[1] = AT2220 concentration in muscle biopsies by LC-MS/MS in Pompe patients; assay type: in vivo, human; settings: for muscle concentrations from Day 3 or Day 7 biopsies: 50 mg and 100 mg, lower limit of quantitation 8 ng/g; for concentration at 7 day / concentration at 3 day: human, muscle, oral, read-out: Muscle AT2220 Conc
Excerpt: GAA enzyme activity will be examined in muscle biopsy samples. One piece of muscle tissue will be removed as described in Table 1. GAA activity in muscle will be determined by a validated assay measuring enzyme activity using 4-MUG, with and without Con A. GAA protein levels will be measured by Western blotting using anti-human GAA antibody. 1-deoxynojirimycin hydrochloride concentrations in muscle samples collected in Period 2 will be determined using a validated LC-MS/MS assay.

[2] = tested on: T cells derived from blood from 50 healthy donors; assay: Ex vivo T cell immunogenicity (EpiScreen assay); assay type: cell-based, human; settings: T cells from 50 healthy donors, addition of AT2220
Excerpt: By stabilizing the folded and active form of the rhGAA enzyme, AT2220 may mitigate ERT-induced immunogenicity since unfolded and aggregated proteins are generally more antigenic than properly folded proteins. […] The studies utilized Antitope Ltd.'s EpiScreen™ assay and are being repeated in samples from the Pompe patients in the study described by Examples 1-3.

[3] = Safety assessment in Pompe patients (adverse events, urine Hex4, CPK, ALT/AST, muscle strength); assay type: in vivo, human; settings: for Adverse event: Intensity / Adverse event: Relation to Study Drug? / Adverse event: Was Event Serious?: per adverse event
Excerpt: Dose escalation to the next dose level of 1-deoxynojirimycin hydrochloride may proceed following review of safety and tolerability data from the previous dose level group(s). Safety data reviewed will include adverse events (including infusion reactions), clinical laboratory tests (including creatine kinase, LDH (LDH-5), alkaline phosphatase, AST, ALT), Hex4, 12-Lead ECGs, physical examinations, muscle strength tests and vital signs.
Safety parameters will be assessed by review of changes in physical exam findings, vital signs, ECG changes over time, clinical labs, Hex4 and adverse events.
Blood samples for clinical laboratory tests (hematology, serum chemistry) and urinalyses will be collected according to the schedule in Table 1. • Hematology tests include total hemoglobin, hematocrit, erythrocyte, platelet and leukocyte counts with differential. • Coagulation (screening only) includes INR and aPTT. • Serum chemistry includes measurement of AST, ALT, alkaline phosphatase, total bilirubin, creatinine, creatine kinase, urea, glucose, calcium, sodium, potassium, magnesium, total protein, albumin, bicarbonate, LDH (LDH-5), blood urea nitrogen, chloride, and phosphate. • Urinalysis includes color, appearance, specific gravity, pH, protein, glucose, ketones, blood, leukocyte esterase, nitrite, bilirubin, urobilinogen and microscopy of sediment
Muscular strength tests, assessed by hand held dynamometer, will be conducted at Screening, Days −1 and 7 of each period and at Follow-up. Proximal and distal muscle groups will be evaluated.

[4] = co-administration with rhGAA 20 mg/kg IV every other week for 8 weeks

OC[C@H]1NC[C@H](O)[C@@H](O)[C@@H]1O [AT2220, (2R,3R,4R,5S)-2-hydroxymethyl-piperidine-3,4,5-triol]
tissue glycogen levels (glycogen (GAA substrate); 10 or 30 mg/kg PO 30 min before rhGAA 20 mg/kg IV every other week for 8 weeks): dose-dependent reduction
glycogen reduction vs rhGAA alone, biceps (glycogen (GAA substrate); [4]): ~1.4 fold
glycogen reduction vs rhGAA alone, diaphragm (glycogen (GAA substrate); [4]): ~1.6 fold
glycogen reduction vs rhGAA alone, gastrocnemius (glycogen (GAA substrate); [4]): ~2.7 fold
glycogen reduction vs rhGAA alone, heart (glycogen (GAA substrate); [4]): approximately 2.3 fold
glycogen reduction vs rhGAA alone, quadriceps (glycogen (GAA substrate); [4]): ~2.6 fold
glycogen reduction vs rhGAA alone, soleus (glycogen (GAA substrate); [4]): ~1.2 fold
glycogen reduction vs rhGAA alone, tongue (glycogen (GAA substrate); [4]): ~1.3 fold
glycogen reduction vs rhGAA alone, triceps (glycogen (GAA substrate); [4]): ~2.2 fold
muscle concentrations from Day 3 or Day 7 biopsies [1]: either below or near the lower limit of quantitation
muscle concentrations from Day 3 or Day 7 biopsies ([1]; listed as 1-DNJ-HCl): either below or just above the lower limit of quantification
Muscle AT2220 Conc ([1]; Cohort 2, 100 mg AT2220, Period 2, biopsy Day 3, individual subjects, LLOQ = 8.0 ng/g (16.0 or […] for diluted samples)): BLQ^c
muscle AT2220 concentrations ([1]; Cohort 3 (250 mg) vs lower doses, preliminary): Dose-related increases
subjects with a quantifiable AT2220 concentration in muscle ([1]; Cohort 3 (250 mg), biopsies 3 or 7 days post dose, preliminary): 4 of 6
Muscle AT2220 Conc ([1]; Cohort 3, 250 mg AT2220, Period 2, biopsy Day 7, individual subjects, LLOQ = 8.0 ng/g (16.0 or […] for diluted samples)): 27.9 ng/g
Muscle AT2220 Conc ([1]; Patient D, 50 mg, Period 2, Day 7, LLOQ = 8.0 ng/g): BLQ
Muscle AT2220 Conc ([1]; Patient F, 100 mg, Period 2, Day 7, sample diluted 2-fold, LLOQ = […]): BLQ^b
Muscle AT2220 Conc ([1]; Patient G, 100 mg, Period 2, Day 7, LLOQ = 8.0 ng/g): BLQ
Muscle AT2220 Conc ([1]; Patient H, 100 mg, Period 2, Day 3, sample diluted 2-fold, LLOQ = […]): BLQ^b
Muscle AT2220 Conc ([1]; Patient I, 100 mg, Period 2, Day 7, sample diluted 2-fold, LLOQ = […]): BLQ^b
Muscle AT2220 Conc ([1]; Patient J, 100 mg, Period 2, Day 3, sample diluted 3-fold, LLOQ = […]): BLQ^c
clearance from muscle ([1]; all four cohorts, Day 7): cleared from muscle to near-undetectable levels by Day 7
concentration at 7 day ([1]; 50 mg, Cohort 1, 50 mg AT2220, Period 2, biopsy Day 7, individual subjects, LLOQ = 8.0 ng/g (16.0 or […] for diluted samples)): 13.1 ng/g
concentration at 7 day ([1]; 50 mg, Patient A, 50 mg, Period 2, Day 7, LLOQ = 8.0 ng/g): 11.8 ng/g
concentration at 7 day ([1]; 50 mg, Patient B, 50 mg, Period 2, Day 7, LLOQ = 8.0 ng/g): 10 ng/g
concentration at 7 day ([1]; 50 mg, Patient C, 50 mg, Period 2, Day 7, LLOQ = 8.0 ng/g): 13.1 ng/g
concentration at 3 day ([1]; 100 mg, Cohort 2, 100 mg AT2220, Period 2, biopsy Day 3, individual subjects, LLOQ = 8.0 ng/g (16.0 or […] for diluted samples)): 17.8 ng/g
concentration at 3 day ([1]; 100 mg, Patient E, 100 mg, Period 2, Day 3, LLOQ = 8.0 ng/g): 17.8 ng/g
concentration at 3 day ([1]; 250 mg, Cohort 3, 250 mg AT2220, Period 2, biopsy Day 3, individual subjects, LLOQ = 8.0 ng/g (16.0 or […] for diluted samples)): 54.4 ng/g
concentration at 7 day ([1]; 250 mg, Cohort 3, 250 mg AT2220, Period 2, biopsy Day 7, individual subjects, LLOQ = 8.0 ng/g (16.0 or […] for diluted samples)): 28.1 ng/g
immunogenicity of Myozyme and Lumizyme [2]: may significantly reduce the immunogenicity
Adverse event: Intensity ([3]; Cohort 1 (50 mg 1-DNJ-HCl)): Mild
Adverse event: Relation to Study Drug? ([3]; Cohort 1 (50 mg 1-DNJ-HCl)): Unrelated
Adverse event: Was Event Serious? ([3]; Cohort 1 (50 mg 1-DNJ-HCl)): No
ALT/AST ([3]; Cohort 1 (50 mg), 4 subjects): No drug related elevations
CPK ([3]; Cohort 1 (50 mg), 4 subjects): no drug related elevations beyond subjects' baseline values range
Muscle strength ([3]; Cohort 1 (50 mg), 4 subjects): No change between Periods 1 and 2
SAE / drug-related AEs ([3]; Cohort 1 (50 mg), 4 subjects): No SAE or drug-related AEs
Urine Hex4 ([3]; Cohort 1 (50 mg), 4 subjects): no drug related elevations
Adverse event: Intensity ([3]; Cohort 2 (100 mg 1-DNJ-HCl)): Mild
Adverse event: Relation to Study Drug? ([3]; Cohort 2 (100 mg 1-DNJ-HCl)): Unrelated
Adverse event: Was Event Serious? ([3]; Cohort 2 (100 mg 1-DNJ-HCl)): No
ALT/AST ([3]; Cohort 2 (100 mg), 5 subjects): No drug related elevations
CPK ([3]; Cohort 2 (100 mg), 5 subjects): no drug related elevations beyond subjects' baseline range
Hex4 ([3]; Cohort 2 (100 mg), 5 subjects): no drug related elevations
Muscle strength ([3]; Cohort 2 (100 mg), 5 subjects): No change between Periods 1 and 2
SAE / drug-related AEs ([3]; Cohort 2 (100 mg), 5 subjects): No SAE or drug-related AEs
Adverse Event ([3]; Cohort 2 (rhGAA alone, then rhGAA + 100 mg 1-DNJ-HCl), per patient): None
CPK levels ([3]; Cohorts 1 and 2): did not appreciably change from baseline
relation of reported adverse events to drug ([3]; Cohorts 1 and 2, only mild, transient adverse events reported): none of which were related to AT2220
urine hex 4 levels ([3]; following a single dose of AT2220, Cohorts 1 and 2): either did not change from baseline, or did not show any consistent trend
tolerability ([3]; single doses co-administered with ERT, Cohorts 1-4 (50-600 mg)): well-tolerated, with no drug-related adverse events reported
safety and tolerability ([3]; single doses of 50 mg and 100 mg, patients with Pompe Disease): safe and well-tolerated
